Test results: patent US20210315893A1 (Galapagos NV, priority 2017, published 2021)

Tests used:
[1] = molecular target: T1, human GPCR sphingosine 1-phosphate receptor 2 (Homo sapiens, UniProt O95136); assay: S1PR2 antagonist Ca2+ flux assay; type: cell-based; conditions: antagonist mode, CHO-S1PR2 cells, S1P at EC80, Ca2+ fluorescence; read-out: S1P2 EC50 (nM), S1P2 antagonist EC50
T1 construct: host or cells: CHO
In short: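 Antagonist mode: 15 min after compound addition, S1P (EC80) stimulates Fluo8-loaded, 1 h-starved CHO-S1PR2 cells, Ca2+ read over 3 min; a prior 3-min read checks compound agonism. EC50 from peak/baseline fluorescence ratio, normalised versus vehicle and S1P EC50 (antagonist) or EC100 (agonist).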

HFL-1 cells [2] = assay: IL8 assay in the presence of Human Serum Albumin; conditions: HFL1, read-out: HSA IL8 EC50
S1PR2 = molecular target: T2, S1PR2 (Homo sapiens, UniProt O95136); assay: S1PR2 binding assay (competition with radioactively labeled S1P, SpA); conditions: membranes from stable cell line over expressing S1PR2, SpA beads; read-out: S1P2 EC50 (nM), S1PR2 binding EC50
T2 construct: expressed in transfected cells
T2 sequence (O95136 whole entry): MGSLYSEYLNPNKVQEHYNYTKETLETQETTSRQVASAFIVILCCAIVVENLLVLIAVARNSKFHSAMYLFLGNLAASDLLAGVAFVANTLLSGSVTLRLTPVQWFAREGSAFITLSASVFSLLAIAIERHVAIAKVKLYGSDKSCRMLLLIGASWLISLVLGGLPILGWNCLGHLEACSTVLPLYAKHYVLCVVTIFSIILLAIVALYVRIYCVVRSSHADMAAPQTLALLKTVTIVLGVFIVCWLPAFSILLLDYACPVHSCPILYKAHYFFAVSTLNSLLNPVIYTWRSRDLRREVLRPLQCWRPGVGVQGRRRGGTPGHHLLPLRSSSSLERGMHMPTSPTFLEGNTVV
In short: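 Scintillation proximity read-out after 2 h room-temperature incubation of compound, [3H]S1P and S1PR2-overexpressing cell membranes on WGA-coated beads. Buffer: 20 mM Tris pH 7.5, 100 mM NaCl, 10 mM MgCl2, 1 mM Na3VO4, 0.4% fatty-acid-free BSA; plates counted immediately after centrifugation.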

HFL-1 cells [3] = assay: IL-8 production assay (S1P induced IL-8); type: cell-based; conditions: Homo sapiens, HFL1; S1P (1 μM) induced IL-8 in HFL-1 cells, starvation medium without HSA; read-out: IL8 EC50
Procedure: This assay is designed to test inhibitory activity of compounds on S1P induced IL-8 on HFL-1 cells, ahuman fetal lung fibroblast cell line.
Human Fetal Lung cells (HFL-1) are seeded in 96 well plates in growth medium (F12K+10% heat inactivated FBS+l1% Pen/strep). After overnight incubation at 37° C., […] cells are refreshed with starvation medium without HSA (F12K+1% FBS+1% Pen/strep). On day three, compounds are added (10 point serial dilution, 30 μM highest concentration, 1/3 dilution, 0.3% DMSO final) and plates are incubated for one h at 37° C., 5% CO2. Subsequently S1P at 1 μM final concentration is added and plates are incubated for 16 to24 h at 37° C., […] after which the supermatant was collected. IL-8 levels in the supernatant are determined with the IL-8 ELISA of R&D systems.

T1 sequence (O95136 whole entry): as above

Structure (SMILES) | EC50 [1] | EC50 (HFL-1 cells [2]) | EC50 (S1PR2) | EC50 (HFL-1 cells [3])
N#Cc1cc2[nH]c(Cc3nn(C(CN4CCC4)C(=O)O)c(=O)c4ccccc34)nc2cc1OCC(F)F (stereo not shown) [Compound 75, 3-(azetidin-1-yl)-2-[4-[[6-cyano-5-(2,2-difluoroethoxy)-1H-benzimidazol-2-yl]methyl]-1-oxo-phthalazin-2-yl]propanoic acid] | 3850 nM | 1300 nM | 2920 nM | 938 nM
O=C(O)Cc1nn(Cc2nc3cc(OCC(F)F)c(Cl)cc3[nH]2)c2ccccc2c1=O [Compound 78, {1-[6-Chloro-5-(2,2-difluoro-ethoxy)-1H-benzoimidazol-2-ylmethyl]-4-oxo-1,4-dihydro-cinnolin-3-yl}-acetic acid] | 6.16 nM | 41.5 nM | 55.9 nM | 4.65 nM
CCC(C(=O)O)c1nn(Cc2cn3cc(OCC4CC4)c(C(F)(F)F)cc3n2)c2ccccc2c1=O (stereo not shown) [Compound 103, 2-[1-[[6-(cyclopropylmethoxy)-7-(trifluoromethyl)imidazo[1,2-a]pyridin-2-yl]methyl]-4-oxo-cinnolin-3-yl]butanoic acid] | 4.59 nM | 108 nM | 223 nM | 18.9 nM
O=C(O)c1nn(Cc2nc3cc(OCC4CC4)c(C(F)(F)F)cc3[nH]2)c2ccccc2c1=O [Compound 104, (1-[[5-(cyclopropylmethoxy)-6-(trifluoromethyl)-1H-benzimidazol-2-yl]methyl]-4-oxocinnoline-3-carboxylic acid)] | 3.02 nM | 27 nM | 22.4 nM | 4.55 nM
O=C(O)Cc1nn(Cc2cn3cc(OCC4CC4)c(Cl)cc3n2)c2c(c1=O)CCCC2 [Compound 105, 2-[1-[[7-chloro-6-(cyclopropylmethoxy)imidazo[1,2-a]pyridin-2-yl]methyl]-4-oxo-5,6,7,8-tetrahydrocinnolin-3-yl]acetic acid] | 3.02 nM | 110 nM | 35.3 nM | 10.6 nM
O=C(O)Cc1nn(Cc2nc3cc(OCC4CC4)c(Br)cc3[nH]2)c2ccccc2c1=O [Compound 109, 2-[1-[[6-bromo-5-(cyclopropylmethoxy)-1H-benzimidazol-2-yl]methyl]-4-oxo-cinnolin-3-yl]acetic acid] | 2.32 nM | 2.03 nM | 3.84 nM | 0.137 nM
CCOc1cc2[nH]c(Cc3nn(CC(=O)O)c(=O)c4c3CCCC4)nc2cc1Cl [Compound 121, 2-[4-[(5-chloro-6-ethoxy-1H-benzimidazol-2-yl)methyl]-1-oxo-5,6,7,8-tetrahydrophthalazin-2-yl]acetic acid] | 6.23 nM | 50.8 nM | 84.8 nM | 6.35 nM
CC1(COc2cc3nc(Cc4nn(CC(=O)O)c(=O)c5ccccc45)[nH]c3cc2Cl)CC1 [Compound 131, 2-[4-[[5-chloro-6-[(1-methylcyclopropyl)methoxy]-1H-benzimidazol-2-yl]methyl]-1-oxo-phthalazin-2-yl]acetic acid] | 13.2 nM | 267 nM | 197 nM | 12 nM
CC(C)(C)COc1cc2nc(Cc3nn(CC(=O)O)c(=O)c4ccccc34)[nH]c2cc1Cl [Compound 132] | 26.4 nM | 800 nM | 649 nM | 97.3 nM

Next, values leading:

EC50 [1] | EC50 (HFL-1 cells [2]) | EC50 (S1PR2) | EC50 (HFL-1 cells [3]) | Structure (SMILES)
14.8 nM | 267 nM | 263 nM | 33.3 nM | N#CC1(COc2cc3nc(Cc4nn(CC(=O)O)c(=O)c5ccccc45)[nH]c3cc2Cl)CC1 [Compound 133, 2-[4-[[5-chloro-6-[(1-cyanocyclopropyl)methoxy]-1H-benzimidazol-2-yl]methyl]-1-oxo-phthalazin-2-yl]acetic acid]
119 nM | 28 nM | 159 nM | 5.39 nM | N#Cc1cc2nc(Cc3nn(CC(=O)O)c(=O)c4ccccc34)[nH]c2cc1OCC(F)F [Compound 139]
13.8 nM | 179 nM | 15.2 nM | 21.6 nM | O=C(Cn1nc(Cn2cc3cc(OCC4CC4)c(Cl)cc3n2)c2ccccc2c1=O)N[C@H]1CCC[C@@H]1O [Compound 143, 2-[4-[[6-chloro-5-(cyclopropylmethoxy)indazol-2-yl]methyl]-1-oxo-phthalazin-2-yl]-N-[(1S,2S)-2-hydroxycyclopentyl]acetamide]
13.6 nM | 43.7 nM | 34.7 nM | 7.11 nM | O=C(Cn1nc(Cc2nc3cc(Cl)c(OCC(F)F)cc3[nH]2)c2ccccc2c1=O)N1CCOCC1 [Compound 151, 4-[[5-chloro-6-(2,2-difluoroethoxy)-1H-benzimidazol-2-yl]methyl]-2-(2-morpholino-2-oxo-ethyl)phthalazin-1-one]
14.7 nM | 230 nM | 229 nM | 49.5 nM | CC(C(=O)N1CCOCC1)n1nc(Cc2nc3cc(OCC4CC4)c(Cl)cc3[nH]2)c2ccccc2c1=O (stereo not shown) [Compound 155, 4-(6-Chloro-5-cyclopropylmethoxy-1H-benzoimidazol-2-ylmethyl)-2-(1-methyl-2-morpholin-4-yl-2-oxo-ethyl)-2H-phthalazin-1-one]
106 nM | 1220 nM | 618 nM | 780 nM | CCOc1cc2nc(Cc3nn(CC(=O)N4CCOCC4)c(=O)c4ccccc34)[nH]c2cc1F [Compound 157, 4-[(5-ethoxy-6-fluoro-1H-benzimidazol-2-yl)methyl]-2-(2-morpholino-2-oxo-ethyl)phthalazin-1-one]
3.98 nM | 11 nM | 18.6 nM | 1.5 nM | N#Cc1cc2[nH]c(Cc3nn(CC(=O)N4CCOCC4)c(=O)c4ccccc34)nc2cc1OCC1CC1 [Compound 158, 6-(cyclopropylmethoxy)-2-[[3-(2-morpholino-2-oxo-ethyl)-4-oxo-phthalazin-1-yl]methyl]-3H-benzimidazole-5-carbonitrile]
9.07 nM | 8.27 nM | 75.1 nM | 4.44 nM | C[C@@H]1CN(C(=O)Cn2nc(Cc3nc4cc(Cl)c(OCC5(C#N)CC5)cc4[nH]3)c3ccccc3c2=O)C[C@H](C)O1 [Compound 162, 1-[[6-chloro-2-[[3-[2-[(2S,6R)-2,6-dimethylmorpholin-4-yl]-2-oxo-ethyl]-4-oxo-phthalazin-1-yl]methyl]-3H-benzimidazol-5-yl]oxymethyl]cyclopropanecarbonitrile]
11.6 nM | 107 nM | 109 nM | 12.6 nM | CC1(COc2cc3[nH]c(Cc4nn(CC(=O)N5CCOCC5)c(=O)c5ccccc45)nc3cc2Cl)CC1 [Compound 163, 4-[[5-chloro-6-[(1-methylcyclopropyl)methoxy]-1H-benzimidazol-2-yl]methyl]-2-(2-morpholino-2-oxo-ethyl)phthalazin-1-one]
9.34 nM | 3.3 nM | 22.4 nM | 1.41 nM | O=C(Cn1nc(Cc2nc3cc(Cl)c(OCC4CC4)cc3[nH]2)c2ccccc2c1=O)N1CCOCC1 [Compound 166, 4-[[5-chloro-6-(cyclopropylmethoxy)-1H-benzimidazol-2-yl]methyl]-2-(2-morpholino-2-oxo-ethyl)phthalazin-1-one]
